PubChem BioAssay (NCI)
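Results reflect a 48-hour exposure of cells in 96-well plates to compound at five concentrations. Here, GI50 denotes the concentration required for 50% inhibition of growth. At the TGI there is no net growth.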

Legend:
Test in all cases: inhibition of tumour cell growth, NCI panel, 48 h
[1] = system: HOP-62 NSCLC
[2] = system: M14 melanoma
[3] = system: U251 CNS
[4] = system: OVCAR-8 ovarian
[5] = system: HCC-2998 colon
[6] = system: MALME-3M melanoma
[7] = system: HT29 colon
[8] = system: SF-268 CNS
[9] = system: COLO 205 colon

SMILES | GI50 [1] [µM] | TGI [1] [µM] | GI50 [2] [µM] | TGI [2] [µM] | GI50 [3] [µM] | TGI [3] [µM] | GI50 [4] [µM] | TGI [4] [µM] | GI50 [5] [µM] | TGI [5] [µM] | GI50 [6] [µM] | TGI [6] [µM] | GI50 [7] [µM] | TGI [7] [µM] | GI50 [8] [µM] | TGI [8] [µM] | GI50 [9] [µM] | TGI [9] [µM]
O=c1oc2ccc(Cl)cc2c(=O)n1-c1ccc(I)cc1F | 0.855 | 3.75 | 0.165 | 1.4 | 0.262 | > 35.6 | 0.323 | 15 | 2.66 | 8.51 | 0.158 | 0.813 | 3.41 | 22.6 | 0.26 | 4.11 | 7 | 19.7
COc1ccc(-c2ccc(/C=N/n3c(COc4ccc(Cl)cc4)n[nH]c3=S)o2)c([N+](=O)[O-])c1 | 22.6 | 40.4 | 32.7 | > 100 | 15.5 | 49.7 | 24.6 | > 100 | 16.5 | 31.2 | 14.1 | 37 | 21.1 | 50.9 | 16.6 | 42.6 | 20.1 | 45.2
Cn1cc(-c2ccc(CNc3cc(-c4cnc5cc(OCCCN6CCCC6)ccn45)ncn3)cc2)cn1 | 14.4 | 31.9 | 1.74 | 3.2 | 1.43 | 2.77 | 1.81 | 3.61 | 2.21 | 5.71 | 1.28 | 2.94 | 1.33 | 2.72 | 1.9 | 4.19 | 10.6 | 25.9
Cc1cn2c(/C=N/N/C(N)=N\N)c(-c3ccc(Cl)c([N+](=O)[O-])c3)nc2s1 | 4.98 | 15.9 |  |  | 0.914 | 1.63 |  |  |  |  |  |  |  |  | 1.03 | 2.37 |  | 
C[C@H](CS(C)(=O)=O)Nc1ncc2cc(Oc3ccc(F)cc3F)c(=O)n(C)c2n1 | > 25 | > 25 | > 25 | > 25 | > 25 | > 25 | > 25 | > 25 | > 25 | > 25 | > 25 | > 25 | > 25 | > 25 | > 25 | > 25 | > 25 | > 25
O=C(Nc1ccc2c(c1)oc(=O)c1ccccc12)C(Cl)Cl |  | > 100 |  | > 100 |  | > 100 |  | > 100 |  | > 100 |  | > 100 |  | 97.8 |  | > 100 |  | > 100
C[C@H](CSC(=O)c1ccccc1)C(=O)N1c2ccccc2C[C@H]1C(=O)O |  | > 100 |  |  |  | > 100 |  | > 100 |  | > 100 |  |  |  | > 100 |  | > 100 |  | > 100
Oc1cc(Cl)ccc1Oc1ccc(Cl)cc1Cl | 2.27 | 5.16 | 2.86 | 7.24 | 2.73 | 10.1 | 2.81 | 9.18 | 2.57 | 6.61 | 2.37 | 6.83 | 3.27 | 10.2 | 4.53 | 16.4 | 3.88 | 13.3
CN(C)c1ccc(N=Nc2c([O-])ccc3ccccc23)cc1.[C-]#[O+].[C-]#[O+].[Ir] | > 100 | > 100 | 21.9 | 46.6 | 35.1 | > 69.3 | 25 | 65.4 | 38.5 | > 79.9 | 15.7 | 33.4 | 28.5 | > 73.1 | 26.9 | 76.6 | 16.5 | 31.6
C=C(C)[C@@H]1CC[C@@]2(C)[C@H]1[C@H]1CCC3[C@@]4(C)CC[C@H](O)C(C)(C)[C@@H]4CC[C@@]3(C)[C@]1(C)C[C@@H]2O (stereo partly specified) |  | > 100 |  | > 100 |  | > 100 |  | > 100 |  |  |  | > 100 |  | > 100 |  | > 100 |  | 
CC(C)(Br)C(=O)/C=C/c1ccccc1 |  | 15.6 |  | 4.88 |  | 20.5 |  | 5.2 |  |  |  | 10.2 |  | 18.3 |  | 51.2 |  | 22
CCOC(=O)N1CCN(S(=O)(=O)c2oc(-c3ccc(Cl)cc3)nc2C#N)CC1 | 13.5 | > 100 | 1.59 | 3.67 | 5.49 | 19.6 | 3.23 | 23.3 | 3.15 | 10.8 | 1.67 | 3.09 |  |  | 2.56 | 6.75 | 2.05 | 4.25
COc1cnc2c(c1)C(=O)c1c-2n(CCCN2CCCC2)c(=O)c2cc(Cl)ccc12 |  |  | 0.872 | 11.8 | 0.0383 | 7.96 | 0.813 | 12.2 | 5.07 | 12.1 | 5.9 | 15.3 | 0.161 | 7.94 | 0.17 | 9.38 | 0.161 | 8.22
Nc1nc(OCc2ccccc2)nc2[nH]ncc12 | 19.3 | 37.8 | 36.6 | > 100 | 18.9 | 42.2 | > 100 | > 100 |  |  |  |  | 28.6 | 77.6 | 17.1 | 48.4 | 18.5 | 40.4
O=[N+]([O-])c1ccc(CS(=O)Cc2ccccc2)cc1 (stereo unspecified) |  | > 100 |  | > 100 |  | > 100 |  | > 100 |  |  |  | > 100 |  | > 100 |  | > 100 |  | > 100
C/C1=C\CC[C@@](C)(O)[C@@H]2CC3[C@@H](OC(=O)C34CC4)[C@@H](O2)[C@H](C)CCC1 (stereo partly specified) |  |  |  |  | 19.9 | 42.7 | 18.8 | 38.1 | 14.7 | 27.8 | 13.5 | 39.3 | 28.9 | > 100 | 19.4 | 73.3 | 24.2 | 63.6
CSc1nc(-c2ccccc2)c2c(n1)-c1ccccc1CC2 |  | > 100 |  | > 100 |  | > 100 |  | > 100 |  |  |  | > 100 |  | > 100 |  | > 100 |  | > 100
